Data on 39 compounds can be found in patent US8536332B2, “Modulating signal transduction pathways with substituted pyridol [2,3-b] pyrazines” (Aeterna Zentaris GmbH, priority 2007, dated 2013).

Molecules are shown by their SMILES. Where only a bound is given, the exact number is not on record here.

For orientation: melting point means the temperature, or range, at which the solid turns liquid.

Compound `CCNC(=S)Nc1cnc2ccc(Nc3ccc(OC)c(Cl)c3)nc2n1` [Compound 202, 1-[6-(3-Chloro-4-methoxy-phenylamino)-pyrido[2,3-b]pyrazin-3-yl]-3-ethyl-thiourea] returned a melting point of 225 °C.
The figure for `CCCOc1c(C)cc(-c2ccc3ncc(NC(=O)NCC)nc3n2)cc1C` [Compound 598, 1-[6-(3,5-Dimethyl-4-propoxy-phenyl)-pyrido[2,3-b]pyrazin-3-yl]-3-ethyl-urea] is 232 °C; for `O=C(Nc1cnc2ccc(-c3cc(Cl)c(O)c(Cl)c3)nc2n1)Nc1ccccc1[N+](=O)[O-]` [Compound 561, 1-[6-(3,5-Dichloro-4-hydroxy-phenyl)-pyrido[2,3-b]pyrazin-3-yl]-3-(2-nitro-phenyl)-urea] it is > 300 °C.
For `COc1cc(Nc2cnc3ccc(NC(=S)NC4CC4)nc3n2)cc(OC)c1OC` [Compound 707, 1-Cyclopropyl-3-[3-(3,4,5-trimethoxy-phenylamino)-pyrido[2,3-b]pyrazin-6-yl]-thiourea] the value was 248 °C; for `COc1cc(-c2ccc3ncc(NC(=O)NCCCCc4ccccc4)nc3n2)ccc1O` [Compound 630, 1-[6-(4-Hydroxy-3-methoxy-phenyl)-pyrido[2,3-b]pyrazin-3-yl]-3-(4-phenyl-butyl)-urea], 208 to 210 °C.
The figure for `CCNC(=O)Nc1ccc2ncc(-c3ccccc3OCC)nc2n1` [Compound 102, 1-[3-(2-Ethoxy-phenyl)-pyrido[2,3-b]pyrazin-6-yl]-3-ethyl-urea] is 220 to 222 °C.
As to `COc1cc(-c2ccc3ncc(NC(=O)NC4CCN(C(=O)OCc5ccccc5)CC4)nc3n2)ccc1O` [Compound 606, 4-{3-[6-(4-Hydroxy-3-methoxy-phenyl)-pyrido[2,3-b]pyrazin-3-yl]-ureido}-piperidine-1-carboxylic acid benzyl ester], the melting point is 210 to 212 °C.
The figure for `COc1cc(-c2ccc3ncc(NC(=O)Nc4ccnc(N5CCOCC5)c4)nc3n2)ccc1O` [Compound 607, 1-[6-(4-Hydroxy-3-methoxy-phenyl)-pyrido[2,3-b]pyrazin-3-yl]-3-(2-morpholin-4-yl-pyridin-4-yl)-urea] is 260 to 263 °C; for `CCNC(=O)Nc1cnc2ccc(Nc3ccc(C)cc3)nc2n1` [Compound 1, 1-Ethyl-3-(6-p-tolylamino-pyrido[2,3-b]pyrazin-3-yl)-urea] it is 235 °C; for `COc1cc(Nc2cnc3ccc(NC(=S)NCCN4CCCCC4)nc3n2)cc(OC)c1OC` [Compound 700, 1-(2-Piperidin-1-yl-ethyl)-3-[3-(3,4,5-trimethoxy-phenylamino)-pyrido[2,3-b]pyrazin-6-yl]-thiourea] it is 206 °C.
For `COc1ccc(-c2ccc3ncc(NC(=O)Nc4ccc(F)cc4)nc3n2)cc1OC` [Compound 572, 1-[6-(3,4-Dimethoxy-phenyl)-pyrido[2,3-b]pyrazin-3-yl]-3-(4-fluoro-phenyl)-urea] the value was 269 to 271 °C.
For `CCNC(=O)Nc1ccc2ncc(-c3cc(C)cc(Br)c3)nc2n1` [Compound 94, 1-[3-(3-Bromo-5-methyl-phenyl)-pyrido[2,3-b]pyrazin-6-yl]-3-ethyl-urea] the value was 270 to 274 °C.
Regarding `COc1cc(-c2ccc3ncc(NC(=S)NC(C)(C)C)nc3n2)ccc1O` [Compound 652, 1-tert-Butyl-3-[6-(4-hydroxy-3-methoxy-phenyl)-pyrido[2,3-b]pyrazin-3-yl]-thiourea], the melting point was in the range of 213 to 215 °C.
In the case of `O=C(Nc1cnc2ccc(-c3cc(Cl)c(O)c(Cl)c3)nc2n1)NC1CCCCC1` [Compound 558, 1-Cyclohexyl-3-[6-(3,5-dichloro-4-hydroxy-phenyl)-pyrido[2,3-b]pyrazin-3-yl]-urea], the melting point fell in the range of 272 to 275 °C.
The figure for `CCCCCCNC(=O)Nc1cnc2ccc(-c3ccc(O)c(OC)c3)nc2n1` [Compound 627, 1-Hexyl-3-[6-(4-hydroxy-3-methoxy-phenyl)-pyrido[2,3-b]pyrazin-3-yl]-urea] is 234 to 235 °C; for `COc1cc(-c2ccc3ncc(NC(=O)Nc4ccc([N+](=O)[O-])cc4)nc3n2)ccc1O` [Compound 616, 1-[6-(4-Hydroxy-3-methoxy-phenyl)-pyrido[2,3-b]pyrazin-3-yl]-3-(4-nitro-phenyl)-urea] it is 247 to 250 °C; for `CCNC(=S)Nc1ccc2ncc(Nc3cccc(OC(C)C)c3)nc2n1` [Compound 163, 1-Ethyl-3-[3-(3-isopropoxy-phenylamino)-pyrido[2,3-b]pyrazin-6-yl]-thiourea] it is 238 °C.
For `CCNC(=O)Nc1cnc2ccc(-c3cccc(OC(C)C)c3)nc2n1` [Compound 177, 1-Ethyl-3-[6-(3-isopropoxy-phenyl)-pyrido[2,3-b]pyrazin-3-yl]-urea] the value was 234 to 237 °C.
For `CCNC(=O)Nc1ccc2ncc(-c3ccccc3F)nc2n1` [Compound 103, 1-Ethyl-3-[3-(2-fluoro-phenyl)-pyrido[2,3-b]pyrazin-6-yl]-urea] the value was 226 to 228 °C; for `COc1ccc(-c2ccc3ncc(NC(=O)NCCc4ccccc4)nc3n2)cc1OC` [Compound 577, 1-[6-(3,4-Dimethoxy-phenyl)-pyrido[2,3-b]pyrazin-3-yl]-3-phenethyl-urea], 254 to 257 °C; for `CCNC(=S)Nc1ccc2ncc(Nc3ccccc3O)nc2n1` [Compound 149, 1-Ethyl-3-[3-(2-hydroxy-phenylamino)-pyrido[2,3-b]pyrazin-6-yl]-thiourea], 280 °C.
The compound `O=C(Nc1ccc(F)cc1)Nc1cnc2ccc(-c3cc(Cl)c(O)c(Cl)c3)nc2n1` [Compound 559, 1-[6-(3,5-Dichloro-4-hydroxy-phenyl)-pyrido[2,3-b]pyrazin-3-yl]-3-(4-fluoro-phenyl)-urea] came in with a melting point of 289 to 291 °C.
Regarding `COc1cc(-c2ccc3ncc(NC(=O)Nc4ccccc4)nc3n2)ccc1O` [Compound 3, 1-[6-(4-Hydroxy-3-methoxy-phenyl)-pyrido[2,3-b]pyrazin-3-yl]-3-phenyl-urea], the melting point was 240 °C.
The figure for `Cc1noc(C)c1NC(=O)Nc1cnc2ccc(-c3cc(Cl)c(O)c(Cl)c3)nc2n1` [Compound 562, 1-[6-(3,5-Dichloro-4-hydroxy-phenyl)-pyrido[2,3-b]pyrazin-3-yl]-3-(3,5-dimethyl-isoxazol-4-yl)-urea] is 257 to 260 °C.
The figure for `COc1ccc(-c2ccc3ncc(NC(=O)Nc4ccc(N(C)C)cc4)nc3n2)cc1OC` [Compound 569, 1-[6-(3,4-Dimethoxy-phenyl)-pyrido[2,3-b]pyrazin-3-yl]-3-(4-dimethylamino-phenyl)-urea] is 262 to 263 °C; for `CCNC(=O)Nc1ccc2ncc(-c3ccccc3OCC(C)C)nc2n1` [Compound 62, 1-Ethyl-3-[3-(2-isobutoxy-phenyl)-pyrido[2,3-b]pyrazin-6-yl]-urea] it is 179 to 181 °C; for `CCNC(=O)Nc1cnc2ccc(-c3ccc(OC)cc3)nc2n1` [Compound 11, 1-Ethyl-3-[6-(4-methoxy-phenyl)-pyrido[2,3-b]pyrazin-3-yl]-urea] it is 244 °C.
For `CCNC(=O)Nc1ccc2ncc(-c3ccc(N)c([N+](=O)[O-])c3)nc2n1` [Compound 78, 1-[3-(4-Amino-3-nitro-phenyl)-pyrido[2,3-b]pyrazin-6-yl]-3-ethyl-urea] the value was > 350 °C; for `CCNC(=O)Nc1cnc2ccc(-c3cnn(C)c3)nc2n1` [Compound 10, 1-Ethyl-3-[6-(1-methyl-1H-pyrazol-4-yl)-pyrido[2,3-b]pyrazin-3-yl]urea], 211 °C; for `C=CCNC(=O)Nc1cnc2ccc(-c3ccc(O)c(OC)c3)nc2n1` [Compound 18, 1-Allyl-3-[6-(4-hydroxy-3-methoxy-phenyl)-pyrido[2,3-b]pyrazin-3-yl]-urea], 211 to 213 °C.
`CCNC(=O)Nc1ccc2ncc(-c3ccc4c(c3)N(C)CCO4)nc2n1` [Compound 35, 1-Ethyl-3-[3-(4-methyl-3,4-dihydro-2H-benzo[1,4]oxazin-6-yl)-pyrido[2,3-b]pyrazin-6-yl]-urea] showed a melting point of 245 to 247 °C.
As to `CCNC(=S)Nc1ccc2ncc(Nc3ccc(O)c([N+](=O)[O-])c3)nc2n1` [Compound 491, 1-Ethyl-3-[3-(4-hydroxy-3-nitro-phenylamino)-pyrido[2,3-b]pyrazin-6-yl]-thiourea], the melting point came out at 250 °C.
For `CCNC(=O)Nc1ccc2ncc(Nc3ccc(OC)c(O)c3)nc2n1` [Compound 156, 1-Ethyl-3-[3-(3-hydroxy-4-methoxy-phenylamino)-pyrido[2,3-b]pyrazin-6-yl]-urea] the value was 281 °C; for `COc1cc(-c2ccc3ncc(NC(=O)Nc4cccc(-n5cccc5)c4)nc3n2)ccc1O` [Compound 619, 1-[6-(4-Hydroxy-3-methoxy-phenyl)-pyrido[2,3-b]pyrazin-3-yl]-3-(3-pyrrol-1-yl-phenyl)-urea], 214 to 217 °C; for `COc1ccc(-c2ccc3ncc(NC(=O)NC4CCCCC4)nc3n2)cc1OC` [Compound 571, 1-Cyclohexyl-3-[6-(3,4-dimethoxy-phenyl)-pyrido[2,3-b]pyrazin-3-yl]-urea], 262 to 264 °C.
For `CCNC(=S)Nc1ccc2ncc(Nc3ccccc3OC)nc2n1` [Compound 332, 1-Ethyl-3-[3-(2-methoxy-phenylamino)-pyrido[2,3-b]pyrazin-6-yl]-thiourea] the value was 232 °C.
For `C=CCNC(=S)Nc1ccc2ncc(Nc3cc(OC)c(OC)c(OC)c3)nc2n1` [Compound 693, 1-Allyl-3-[3-(3,4,5-trimethoxy-phenylamino)-pyrido[2,3-b]pyrazin-6-yl]-thiourea] the value was 230 to 234 °C.
With `CCNC(=O)Nc1ccc2ncc(-c3ccc([N+](=O)[O-])cc3)nc2n1` [Compound 131, 1-Ethyl-3-[3-(4-nitro-phenyl)-pyrido[2,3-b]pyrazin-6-yl]-urea], the melting point was > 350 °C.
For `CCNC(=O)Nc1cnc2ccc(Nc3cnc4ccccc4c3)nc2n1` [Compound 32, 1-Ethyl-3-[6-(quinolin-3-ylamino)-pyrido[2,3-b]pyrazin-3-yl]-urea] the value was 265 to 270 °C.
